Where two headings read alike, the source gives them in different places.
Key:
human ETA receptor = target: T1, human ETA receptor (Homo sapiens, UniProt P25101); test: Receptor binding assay, ETA ([125I]-ET1, membranes of ETA receptor-expressing CHO cells)
T1 construct: expressed in transfected cells; host or cells: CHO cells
T1 sequence (P25101 21-427): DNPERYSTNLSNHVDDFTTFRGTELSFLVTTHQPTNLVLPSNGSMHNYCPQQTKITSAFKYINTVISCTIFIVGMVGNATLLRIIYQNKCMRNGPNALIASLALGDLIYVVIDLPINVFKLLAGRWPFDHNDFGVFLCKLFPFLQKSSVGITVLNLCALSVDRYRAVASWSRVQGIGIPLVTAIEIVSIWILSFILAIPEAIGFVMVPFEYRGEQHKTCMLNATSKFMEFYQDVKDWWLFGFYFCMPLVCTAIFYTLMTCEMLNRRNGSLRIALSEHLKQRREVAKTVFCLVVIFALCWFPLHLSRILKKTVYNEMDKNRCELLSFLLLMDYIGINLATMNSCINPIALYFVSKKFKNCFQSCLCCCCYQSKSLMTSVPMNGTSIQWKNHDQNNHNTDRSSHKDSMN
Method: (§1) Cloned human ETA receptor-expressing CHO cells and guinea pig cerebellar membranes with >60% ETB compared with ETA receptors were used for binding studies.
The ETA receptor-expressing CHO cells were grown in F12 medium containing 10% fetal calf serum, 1% glutamine, 100 E/ml penicillin and 0.2% streptomycin (Gibco BRL, Gaithersburg, Md., USA). After 48 h, the cells were washed with PBS and incubated with 0.05% trypsin-containing PBS for 5 min. Neutralization was then carried out with F12 medium and the cells were collected by centrifugation at 300×g. To lyse the cells, the pellet was briefly washed with lysis buffer (5 mM tris-HCl, pH 7.4 with 10% glycerol) and then incubated at a concentration of 10^7 cells/ml of lysis buffer at 4° C. for 30 min. The membranes were centrifuged at 20,000×g for 10 min, and the pellet was stored in liquid nitrogen.
(§2) The nonspecific binding was determined with 10^-7 M ET1. After 30 min, filtration was carried out through GF/B glass fiber filters (Whatman, England) in a Skatron cell collector (Skatron, Lier, Norway) to separate free and bound radioligands, and the filters were washed with ice-cold tris-HCl buffer, pH 7.4 with 0.2% BSA. The radioactivity collected on the filters was quantified using a Packard 2200 CA liquid scintillation counter.

ETB receptor = target: T2, ETB receptor (Cavia porcellus, UniProt H0VTF3); test: Receptor binding assay, ETB ([125I]-RZ3, guinea pig cerebellar membranes)
T2 construct: Guinea pig cerebella were homogenized in a Potter-Elvejhem homogenizer; from tissue; host or cells: guinea pig cerebellum (membranes)
T2 sequence (H0VTF3 27-415): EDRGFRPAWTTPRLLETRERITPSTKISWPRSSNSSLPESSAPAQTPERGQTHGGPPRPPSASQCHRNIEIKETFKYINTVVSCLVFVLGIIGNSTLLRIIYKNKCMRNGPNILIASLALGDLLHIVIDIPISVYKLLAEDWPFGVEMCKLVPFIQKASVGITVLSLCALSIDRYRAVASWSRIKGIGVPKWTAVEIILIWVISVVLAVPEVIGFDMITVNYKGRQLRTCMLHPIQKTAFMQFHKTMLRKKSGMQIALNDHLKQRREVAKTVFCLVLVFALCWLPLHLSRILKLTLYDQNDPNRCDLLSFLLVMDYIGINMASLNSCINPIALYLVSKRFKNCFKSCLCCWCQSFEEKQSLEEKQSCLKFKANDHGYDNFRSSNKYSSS
Method: as §1
Guinea pig cerebella were homogenized in a Potter-Elvejhem homogenizer and were obtained by differential centrifugation at 1,000×g for 10 min and repeated centrifugation of the supernatent at 20,000×g for 10 min.
as §2

[1] = cloned human ETA receptor-expressing CHO cell membranes, 25 pM [125I]-ET1, 30 min, read-out: Receptor binding data (Ki values) ETA
[2] = guinea pig cerebellar membranes (>60% ETB compared with ETA receptors), 25 pM [125I]-RZ3, 30 min, read-out: Receptor binding data (Ki values) ETB

SMILES: COc1cc(OC(C(=O)O)C(OC)(c2ccccc2)c2ccccc2)nc(OC)n1 (centres unmarked) [Compound I-1, 2-(2,6-Dimethoxy-4-pyrimidinyloxy)-3-methoxy-3,3-diphenyl-propionic acid]
- Ki (human ETA receptor): 0.038 µM
- Ki (ETB receptor): 8 µM

SMILES: COC(c1ccccc1)(c1ccccc1)C(Oc1cc(C(F)(F)F)nc(C(C)(C)C)n1)C(=O)O (centres unmarked) [Compound I-91, 2-(2-tert-Butyl-6-trifluoromethyl-4-pyrimidinyloxy)-3-methoxy-3,3-diphenylpropionic acid]
- Ki (human ETA receptor; [1]): 3.3 µM
- Ki (ETB receptor; [2]): > 10 µM

SMILES: COC(c1ccccc1)(c1ccccc1)C(Oc1cc(C)c2ccccc2n1)C(=O)O (centres unmarked) [Compound I-166, 2-(4-Methyl-2-quinolinyloxy)-3-methoxy-3,3-diphenylpropionic acid]
- Ki (human ETA receptor; [1]): 0.5 µM
- Ki (ETB receptor; [2]): 4 µM

SMILES: COC(c1ccccc1)(c1ccccc1)C(Oc1ccc2ccccc2n1)C(=O)O (centres unmarked) [Compound I-167]
- Ki (human ETA receptor; [1]): 3 µM
- Ki (ETB receptor; [2]): > 7 µM

Source: patent US6103732A, “Carboxylic acid derivatives, their production and use” (BASF Aktiengesellschaft, priority 1996, dated 2000)
